The text below walks through data of article PMC5978685, “Design, Synthesis, and Evaluation of Novel Immunomodulatory Small Molecules Targeting the CD40–CD154 Costimulatory Protein-Protein Interaction” (Molecules : A Journal of Synthetic Chemistry and Natural …, 2018).

The nature of data set [1]: MTS cytotoxicity assay in HEK Blue cells. Format: cell-based. The following applies: human, HEK Blue CD40 sensor cells; HEK Blue cells, 24 h; read-out: LC50 (cytotoxicity, MTS). The text has this: (§1) As further confirmation of the inhibitory activity of our compounds, a cell-based assay was used with sensor cells (HEK Blue CD40) containing a secreted embryonic alkaline phosphatase (SEAP) reporter gene under the control of a promoter fused to a NF-κB binding site and transfected with CD40. […] For all tested compounds, the corresponding IC50 values are higher than those determined in the cell-free binding inhibition assay (Table 1) representing a loss of activity which is likely due to non-specific binding on account of the presence of proteins and cells in the assay, as well as hydrophobicity-related problems. Cytotoxicities were also evaluated in these same cells and at the same concentrations using a standard MTS assay to ensure that effects are present at non-toxic concentration levels.
(§2) For the MTS assay, HEK Blue cells were cultured and prepared in the same manner as in the CD40 sensor assay. Then cells were added to a 96-well microtiter plate at a density of 50,000 cells/well in the absence or presence of various concentrations of compounds diluted in the same media, without the addition of CD154. The plate was incubated at 37 °C for 24 h. 20 µL per well of MTS, 3-(4,5-dimethylthiazol-2-yl)-5-(3-carboxymethoxyphenyl)-2-(4-sulfophenyl)-2H-tetrazolium, (Promega, Madison, WI, USA) was added to the culture after treatments, and cells were incubated at 37 °C for 4 h. Formazan levels were measured using a plate reader at 490 nm.
(§3) All binding inhibition and cell assays were tested in duplicate or triplicate per plates, and assays were performed as at least three independent experiments. As before, binding and cytotoxicity data were converted to percent inhibition and fitted with standard log inhibitor vs. normalized response models using nonlinear regression in GraphPad Prism (GraphPad, La Jolla, CA, USA) to establish half-maximal (median) inhibitory concentration (IC50) or median lethal concentration (LC50) values. Cell assay data were fitted with a similar model that also allowed for a variable slope using the log inhibitor vs. normalized response (variable slope) model from Prism with a Hill slope (n) shared across all compounds. Cell assays and draining lymph node data were analyzed by one-way repeated-measures analysis of variance (ANOVA) followed by Dunnett’s multiple comparison test as a post hoc test for individual differences using GraphPad Prism and a significance level of p < 0.05 for all comparisons.

Data set [2] relates to HEK Blue cells. As to the kind of experiment: MTS cytotoxicity assay in HEK Blue cells. Format: cell-based. The conditions noted are these: LC50 (MTS) / NF-κB IC50 in sensor cells.
From the text: as §1, §2, §3

The target of data set [3] is T1, CD40–CD154 (CD40L) (Homo sapiens, UniProt P29965).
T1 construct: purchased Enzo Life Sciences
T1 sequence (P29965 116-261 limits assumed): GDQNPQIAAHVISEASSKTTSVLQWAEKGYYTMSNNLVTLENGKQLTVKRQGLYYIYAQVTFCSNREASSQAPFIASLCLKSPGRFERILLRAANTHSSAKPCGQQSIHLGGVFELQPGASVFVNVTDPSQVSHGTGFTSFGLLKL
Details: method as in PMID 29024591. The following applies: 95% CI of 235–401; read-out: CD40–CD154 IC50 (previous assessment); cited from earlier work.

Take `O=C(Nc1ccc(-c2ccc(C(=O)Nc3cccc4cccc(S(=O)(=O)O)c34)cc2)nc1)c1ccc([N+](=O)[O-])cc1` [Compound 18, 8-(4-(5-(4-Nitrobenzamido)pyridin-2-yl)benzamido)naphthalene-1-sulfonic acid]: the CC50 at 24 h in data set [1] turned out to be 131 µM. Moreover, the “therapeutic index, TI = LC50/IC50” value in data set [2] is reported as 15.

As to `O=C(Nc1ccc(-c2ccc(C(=O)Nc3cccc4cccc(S(=O)(=O)O)c34)cc2)cc1)c1ccc([N+](=O)[O-])cc1` [Compound 6, 8-(4′-(4-Nitrobenzamido)biphenyl-4-ylcarboxamido)naphthalene-1-sulfonic acid], the 50% inhibitory concentration (IC50) in data set [3] is 0.307 µM.
